Columns and labels:
HDAC4/5 = experiment: MEF2 reporter assay in HeLa cells; type: cell-based, human; details: relative to CS055 at 3 μM
Protocol: (§1) HDAC subtype selectivity inhibition assay of tested compounds was carried out by several reporter gene assays experiments. Briefly, HeLa cells were seeded in 96-well plates the day before transfection to give a confluence of 50-80%. Cells were transfected with one of reporter gene plasmid containing a promoter sequence or response element upstream of a luciferase gene construct using FuGene6 transfection reagent according to the manufacturer's instruction (Roche). The promoters or response elements including p21-promoter, gdf11-promoter, MEF-binding element (MEF2), Nur77-promoter were fused upstream to the luciferase gene reporter construct. For normalizing the transfection efficiency, a GFP expression plasmid was cotransfected. Cells were allowed to express protein for 24 hours followed by addition of individual compounds or the vehicle (DMSO). 24 hours later the cells were harvested, and the luciferase assay and GFP assay were performed using corresponding assay kits according to the manufacturer's instructions (Promega).

Class I HDAC = experiment: P21 reporter assay in HeLa cells; type: cell-based, human; details: relative to CS055 at 3 μM
Protocol: as §1

HDAC7 = biological target: T1, HDAC7 (Homo sapiens, UniProt Q8WUI4); experiment: Nur77 reporter assay in HeLa cells; type: cell-based; details: relative to CS055 at 3 μM
T1 construct: endogenous in cells; host or cells: HeLa
T1 sequence (Q8WUI4 1-952): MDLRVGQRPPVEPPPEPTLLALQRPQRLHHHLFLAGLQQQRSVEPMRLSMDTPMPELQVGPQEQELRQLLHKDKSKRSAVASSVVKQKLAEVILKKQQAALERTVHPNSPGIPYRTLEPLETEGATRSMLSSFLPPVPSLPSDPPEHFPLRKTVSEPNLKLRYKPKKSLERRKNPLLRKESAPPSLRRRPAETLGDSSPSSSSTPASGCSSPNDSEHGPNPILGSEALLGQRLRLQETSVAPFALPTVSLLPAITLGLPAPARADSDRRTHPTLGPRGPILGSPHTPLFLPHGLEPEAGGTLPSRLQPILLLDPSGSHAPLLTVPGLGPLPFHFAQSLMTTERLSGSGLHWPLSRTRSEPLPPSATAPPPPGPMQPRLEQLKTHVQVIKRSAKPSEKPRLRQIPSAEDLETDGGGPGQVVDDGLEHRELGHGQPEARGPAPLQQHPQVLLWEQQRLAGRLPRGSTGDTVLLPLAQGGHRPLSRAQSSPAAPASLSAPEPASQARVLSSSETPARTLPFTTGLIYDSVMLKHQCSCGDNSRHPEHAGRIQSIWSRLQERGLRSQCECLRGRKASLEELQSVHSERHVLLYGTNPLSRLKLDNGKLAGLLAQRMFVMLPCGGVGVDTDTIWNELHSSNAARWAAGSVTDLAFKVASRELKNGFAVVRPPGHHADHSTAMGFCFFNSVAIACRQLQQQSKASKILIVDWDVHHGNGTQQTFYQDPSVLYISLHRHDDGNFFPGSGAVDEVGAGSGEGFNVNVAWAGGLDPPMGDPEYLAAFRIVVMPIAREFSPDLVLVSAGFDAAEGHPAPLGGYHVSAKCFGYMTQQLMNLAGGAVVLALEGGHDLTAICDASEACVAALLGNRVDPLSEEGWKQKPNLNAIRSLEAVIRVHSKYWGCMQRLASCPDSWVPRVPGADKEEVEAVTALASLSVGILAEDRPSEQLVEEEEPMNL
Protocol: as §1

HDAC3 = biological target: T2, HDAC3 (Homo sapiens, UniProt O15379); experiment: GDF11 reporter assay in HeLa cells; type: cell-based; details: relative to CS055 at 3 μM
T2 construct: endogenous in cells; host or cells: HeLa
Protocol: as §1

Raji = experiment: Tumor cell proliferation (MTS), Raji; type: cell-based; details: Homo sapiens, 72 hours
Protocol: (§2) Measurement of in vivo cell proliferation:
(§3) Tumor cells were trypsinized and plated into 96-well plates at 3,000 per well and incubated in complete medium with 10% FBS for 24 hours. Compounds were added over a final concentration range of 100 μmol/L to 100 nmol/L in 0.1% DMSO and incubated for 72 hours in complete medium. The effects on proliferation were determined by addition of MTS reagent (Promega) according to the instruction, incubation for 2 hours at 37° C. in CO2 incubator, and record the absorbance at 490 nm using an ELISA plate reader.

HCT-8 = experiment: Tumor cell proliferation (MTS), HCT-8; type: cell-based; details: Homo sapiens, HCT-8, 72 hours
Protocol: as §2, §3

Ramos = experiment: Tumor cell proliferation (MTS), Ramos; type: cell-based; details: Homo sapiens, 72 hours
Protocol: as §2, §3

A549 = experiment: Tumor cell proliferation (MTS), A549; type: cell-based; details: Homo sapiens, A549, 72 hours
Protocol: as §2, §3

Bel-7402 = experiment: Tumor cell proliferation (MTS), Bel-7402; type: cell-based; details: Homo sapiens, Bel-7402, 72 hours
Protocol: as §2, §3

HL60 = experiment: Tumor cell proliferation (MTS), HL60; type: cell-based; details: Homo sapiens, HL-60, HL60, 72 hours
Protocol: as §2, §3

MDA-MB-231 = experiment: Tumor cell proliferation (MTS), MDA-MB-231; type: cell-based; details: Homo sapiens, MDA-MB-231, 72 hours
Protocol: as §2, §3

HeLa = experiment: Tumor cell proliferation (MTS), HeLa; type: cell-based; details: Homo sapiens, 72 hours
Protocol: as §2, §3

Jurkat = experiment: Tumor cell proliferation (MTS), Jurkat; type: cell-based; details: Homo sapiens, 72 hours
Protocol: as §2, §3

U937 = experiment: Tumor cell proliferation (MTS), U937; type: cell-based; details: Homo sapiens, U-937, U937, 72 hours
Protocol: as §2, §3

Hut-78 = experiment: Tumor cell proliferation (MTS), Hut-78; type: cell-based; details: Homo sapiens, HuT78, Hut-78, 72 hours
Protocol: as §2, §3

MCF7 = experiment: Tumor cell proliferation (MTS), MCF7; type: cell-based; details: Homo sapiens, MCF7, 72 hours
Protocol: as §2, §3

T2 sequence (O15379 whole entry): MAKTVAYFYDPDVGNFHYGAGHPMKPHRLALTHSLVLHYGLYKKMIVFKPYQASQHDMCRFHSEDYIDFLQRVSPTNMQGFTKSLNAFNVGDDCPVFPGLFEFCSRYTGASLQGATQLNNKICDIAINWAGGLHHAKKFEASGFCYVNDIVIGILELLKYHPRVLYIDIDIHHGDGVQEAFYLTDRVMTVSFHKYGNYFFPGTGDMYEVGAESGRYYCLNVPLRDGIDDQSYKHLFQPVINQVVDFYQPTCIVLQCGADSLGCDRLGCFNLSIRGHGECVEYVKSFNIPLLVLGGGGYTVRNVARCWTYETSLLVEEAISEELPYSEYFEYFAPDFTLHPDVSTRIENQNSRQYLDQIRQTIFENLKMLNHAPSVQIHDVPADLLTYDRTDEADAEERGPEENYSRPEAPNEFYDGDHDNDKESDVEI
T2 sequence (Q9Y618 whole entry partner): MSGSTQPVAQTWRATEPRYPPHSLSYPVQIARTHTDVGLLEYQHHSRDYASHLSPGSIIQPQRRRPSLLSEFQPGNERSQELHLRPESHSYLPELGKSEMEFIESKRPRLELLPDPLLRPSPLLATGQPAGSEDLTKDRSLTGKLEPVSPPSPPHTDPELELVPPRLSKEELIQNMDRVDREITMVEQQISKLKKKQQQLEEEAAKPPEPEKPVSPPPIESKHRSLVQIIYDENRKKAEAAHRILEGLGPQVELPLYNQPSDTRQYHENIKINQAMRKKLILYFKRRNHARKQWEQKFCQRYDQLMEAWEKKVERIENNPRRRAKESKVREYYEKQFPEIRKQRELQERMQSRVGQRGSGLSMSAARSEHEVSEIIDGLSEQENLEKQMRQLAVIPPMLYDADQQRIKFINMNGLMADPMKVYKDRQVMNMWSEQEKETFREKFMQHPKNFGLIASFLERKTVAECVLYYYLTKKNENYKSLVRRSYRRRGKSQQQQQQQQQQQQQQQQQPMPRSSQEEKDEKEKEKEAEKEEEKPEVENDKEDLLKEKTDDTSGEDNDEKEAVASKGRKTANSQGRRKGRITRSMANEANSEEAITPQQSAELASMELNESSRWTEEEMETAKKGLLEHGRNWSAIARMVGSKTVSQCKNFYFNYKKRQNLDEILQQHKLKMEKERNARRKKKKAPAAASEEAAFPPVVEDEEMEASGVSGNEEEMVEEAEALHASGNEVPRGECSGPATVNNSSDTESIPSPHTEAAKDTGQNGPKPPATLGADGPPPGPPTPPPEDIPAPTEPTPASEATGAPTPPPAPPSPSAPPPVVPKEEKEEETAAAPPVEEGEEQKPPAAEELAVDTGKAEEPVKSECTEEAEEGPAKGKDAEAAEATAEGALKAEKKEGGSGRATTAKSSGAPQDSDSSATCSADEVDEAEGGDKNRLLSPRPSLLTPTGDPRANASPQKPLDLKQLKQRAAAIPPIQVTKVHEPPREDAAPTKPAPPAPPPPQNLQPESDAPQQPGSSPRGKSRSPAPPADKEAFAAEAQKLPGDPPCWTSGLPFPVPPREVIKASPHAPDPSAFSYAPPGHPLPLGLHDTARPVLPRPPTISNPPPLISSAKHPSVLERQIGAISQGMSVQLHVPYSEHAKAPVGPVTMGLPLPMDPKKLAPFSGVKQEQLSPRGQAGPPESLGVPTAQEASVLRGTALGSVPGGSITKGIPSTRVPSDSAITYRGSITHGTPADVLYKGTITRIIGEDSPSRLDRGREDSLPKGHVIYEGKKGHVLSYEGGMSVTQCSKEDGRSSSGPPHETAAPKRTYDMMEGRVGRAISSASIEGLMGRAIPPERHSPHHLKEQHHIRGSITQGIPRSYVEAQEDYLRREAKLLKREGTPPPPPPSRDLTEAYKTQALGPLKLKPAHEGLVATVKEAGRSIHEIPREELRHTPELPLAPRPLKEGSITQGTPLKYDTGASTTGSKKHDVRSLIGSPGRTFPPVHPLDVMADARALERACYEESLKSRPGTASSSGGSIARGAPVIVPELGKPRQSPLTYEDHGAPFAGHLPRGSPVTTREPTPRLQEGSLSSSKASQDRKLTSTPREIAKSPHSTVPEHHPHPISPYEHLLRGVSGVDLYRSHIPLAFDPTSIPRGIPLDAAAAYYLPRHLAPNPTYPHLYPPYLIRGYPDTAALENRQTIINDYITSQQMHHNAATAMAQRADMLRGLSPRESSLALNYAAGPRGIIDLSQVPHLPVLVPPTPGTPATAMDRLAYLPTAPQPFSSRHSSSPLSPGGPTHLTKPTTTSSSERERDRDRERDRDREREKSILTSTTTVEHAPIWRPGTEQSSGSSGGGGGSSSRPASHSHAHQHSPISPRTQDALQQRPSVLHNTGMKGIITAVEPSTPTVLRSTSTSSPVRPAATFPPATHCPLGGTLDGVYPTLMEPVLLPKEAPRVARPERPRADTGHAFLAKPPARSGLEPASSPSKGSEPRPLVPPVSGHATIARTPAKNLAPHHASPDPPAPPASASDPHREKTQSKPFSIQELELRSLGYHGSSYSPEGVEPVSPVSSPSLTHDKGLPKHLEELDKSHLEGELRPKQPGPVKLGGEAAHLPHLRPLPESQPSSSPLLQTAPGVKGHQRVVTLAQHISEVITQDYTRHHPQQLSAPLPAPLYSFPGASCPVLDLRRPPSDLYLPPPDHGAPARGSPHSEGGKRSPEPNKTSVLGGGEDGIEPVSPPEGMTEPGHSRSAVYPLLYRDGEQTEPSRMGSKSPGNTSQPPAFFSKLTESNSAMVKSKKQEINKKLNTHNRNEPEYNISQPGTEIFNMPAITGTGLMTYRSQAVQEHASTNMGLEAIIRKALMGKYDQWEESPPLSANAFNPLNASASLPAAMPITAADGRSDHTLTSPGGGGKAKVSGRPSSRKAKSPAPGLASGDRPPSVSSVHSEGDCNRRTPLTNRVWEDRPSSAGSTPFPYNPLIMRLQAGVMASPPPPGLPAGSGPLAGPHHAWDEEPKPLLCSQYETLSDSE

GI50 (Raji)	GI50 (HCT-8)	GI50 (Ramos)	GI50 (A549)	GI50 (Bel-7402)	GI50 (HL60)	GI50 (MDA-MB-231)	GI50 (HeLa)	GI50 (Jurkat)	GI50 (U937)	GI50 (Hut-78)	GI50 (MCF7)	Compound	HDAC4/5 (MEF2 reporter assay) % Max Resp of CS055 at 3 μM (HDAC4/5)	Class I HDAC (P21 reporter assay) % Max Resp of CS055 at 3 μM (Class I HDAC)	HDAC7 (Nur77 reporter assay) % Max Resp of CS055 at 3 μM (HDAC7)	HDAC3 (GDF11 reporter assay) % Max Resp of CS055 at 3 μM (HDAC3)
												O=C(CCCCCCC(=O)Nc1ccccc1)NO [SAHA, suberoylanilide hydroxamic acid, reference compound]	427.3%	304.1%	514.9%	317.9%
4.15 µM	5.35 µM	1.51 µM	13.8 µM	9.73 µM	1.28 µM	4.25 µM	30.8 µM	16.9 µM	4.06 µM	12.5 µM	9.51 µM	CNC(=O)c1cc(Oc2ccc(NC(=O)Nc3ccc(Cl)c(C(F)(F)F)c3)cc2)ccn1 [Sorafinib, reference compound]				
5.47 µM	12.2 µM	12 µM	14.7 µM	13.1 µM	1.73 µM	4.66 µM	9.29 µM	7.05 µM	8.28 µM	4.06 µM	7.55 µM	CCN(CC)CCNC(=O)c1c(C)[nH]c(/C=C2\C(=O)Nc3ccc(F)cc32)c1C [Sutent, reference compound]				

Reference: patent publication US8158656B2, “2-indolinone derivatives as multi-target protein kinase inhibitors and histone deacetylase inhibitors” (Shenzhen Chipscreen Biosciences Ltd., priority 2008, dated 2012)
